From paper PMC7316778 (Nature Communications, 2020)

Key:
Assay in all cases: SelectScreen kinase assay
[1] = target: HIPK2 (Homo sapiens, UniProt Q9H2X6); conditions: for Inhibition at 1 µM (%): HIPK2, ZLYTE, ATP Km app
Procedure: (§1) Selectivity profiling assays were performed by the Invitrogen SelectScreen™ Services. […] The concentration of ATP was selected to be equal to the KM, unless indicated otherwise.

[2] = target: STK22D (TSSK1) (Homo sapiens, UniProt Q9BXA7); conditions: 1 h, 1 μM WEL028, 1 h preincubation
Procedure: as §1

[3] = target: T1, NUAK1 (ARK5) (Homo sapiens, UniProt O60285)
T1 sequence (O60285 1-661): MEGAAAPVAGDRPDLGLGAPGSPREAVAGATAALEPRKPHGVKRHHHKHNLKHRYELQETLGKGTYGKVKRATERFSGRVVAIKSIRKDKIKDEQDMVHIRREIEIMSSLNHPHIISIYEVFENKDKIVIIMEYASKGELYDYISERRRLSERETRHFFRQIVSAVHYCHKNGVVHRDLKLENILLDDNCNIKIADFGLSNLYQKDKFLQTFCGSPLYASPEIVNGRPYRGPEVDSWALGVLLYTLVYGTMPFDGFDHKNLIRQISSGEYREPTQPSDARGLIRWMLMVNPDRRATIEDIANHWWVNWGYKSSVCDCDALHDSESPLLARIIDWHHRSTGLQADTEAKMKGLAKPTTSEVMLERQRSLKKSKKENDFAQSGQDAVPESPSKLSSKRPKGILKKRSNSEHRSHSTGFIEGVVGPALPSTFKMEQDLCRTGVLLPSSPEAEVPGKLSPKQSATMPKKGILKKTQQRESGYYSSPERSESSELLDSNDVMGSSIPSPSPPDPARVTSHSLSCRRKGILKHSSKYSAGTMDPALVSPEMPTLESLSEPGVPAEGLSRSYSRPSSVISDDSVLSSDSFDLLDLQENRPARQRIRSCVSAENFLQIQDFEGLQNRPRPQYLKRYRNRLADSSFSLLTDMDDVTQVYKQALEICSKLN
Procedure: as §1

[4] = target: T2, KSR2 (Homo sapiens, UniProt Q6VAB6); conditions: for Inhibition at 1 µM (%): KSR2, ZLYTE, ATP Km app
T2 sequence (Q6VAB6 1-950): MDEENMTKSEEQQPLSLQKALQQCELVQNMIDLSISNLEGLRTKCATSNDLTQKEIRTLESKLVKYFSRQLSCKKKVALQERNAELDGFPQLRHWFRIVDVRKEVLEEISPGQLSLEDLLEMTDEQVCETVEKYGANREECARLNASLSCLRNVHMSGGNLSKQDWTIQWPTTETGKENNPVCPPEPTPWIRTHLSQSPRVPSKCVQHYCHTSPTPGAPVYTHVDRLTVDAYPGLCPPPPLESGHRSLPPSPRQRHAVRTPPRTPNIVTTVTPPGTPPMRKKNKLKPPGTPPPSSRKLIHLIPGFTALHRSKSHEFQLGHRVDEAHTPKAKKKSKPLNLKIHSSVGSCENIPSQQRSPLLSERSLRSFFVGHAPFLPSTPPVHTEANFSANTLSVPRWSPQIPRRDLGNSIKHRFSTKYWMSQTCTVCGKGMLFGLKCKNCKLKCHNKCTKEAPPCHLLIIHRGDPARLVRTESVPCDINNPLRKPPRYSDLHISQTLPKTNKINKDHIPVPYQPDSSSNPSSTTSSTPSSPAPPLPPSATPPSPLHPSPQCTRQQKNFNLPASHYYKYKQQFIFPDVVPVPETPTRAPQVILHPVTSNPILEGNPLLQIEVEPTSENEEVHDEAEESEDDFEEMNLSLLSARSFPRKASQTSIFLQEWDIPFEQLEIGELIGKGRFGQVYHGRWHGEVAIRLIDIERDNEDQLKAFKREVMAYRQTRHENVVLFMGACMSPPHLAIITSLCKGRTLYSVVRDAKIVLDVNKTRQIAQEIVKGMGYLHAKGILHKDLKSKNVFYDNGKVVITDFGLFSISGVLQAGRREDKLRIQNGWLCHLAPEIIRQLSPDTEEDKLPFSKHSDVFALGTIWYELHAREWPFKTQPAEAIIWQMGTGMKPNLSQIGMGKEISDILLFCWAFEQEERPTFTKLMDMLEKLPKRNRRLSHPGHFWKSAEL
Procedure: as §1

[5] = target: EPHA7 (Homo sapiens, UniProt Q15375); conditions: 1 h, 1 μM WEL028, 1 h preincubation
Procedure: as §1

[6] = target: AKT1 (PKB alpha) (Homo sapiens, UniProt P31749); conditions: for Inhibition at 1 µM (%): AKT1 (PKB alpha), ZLYTE, ATP Km app
Procedure: as §1

[7] = target: T3, CASK (Homo sapiens, UniProt O14936); conditions: for Inhibition at 1 µM (%): CASK, LanthaScreen Binding
T3 sequence (O14936 1-926): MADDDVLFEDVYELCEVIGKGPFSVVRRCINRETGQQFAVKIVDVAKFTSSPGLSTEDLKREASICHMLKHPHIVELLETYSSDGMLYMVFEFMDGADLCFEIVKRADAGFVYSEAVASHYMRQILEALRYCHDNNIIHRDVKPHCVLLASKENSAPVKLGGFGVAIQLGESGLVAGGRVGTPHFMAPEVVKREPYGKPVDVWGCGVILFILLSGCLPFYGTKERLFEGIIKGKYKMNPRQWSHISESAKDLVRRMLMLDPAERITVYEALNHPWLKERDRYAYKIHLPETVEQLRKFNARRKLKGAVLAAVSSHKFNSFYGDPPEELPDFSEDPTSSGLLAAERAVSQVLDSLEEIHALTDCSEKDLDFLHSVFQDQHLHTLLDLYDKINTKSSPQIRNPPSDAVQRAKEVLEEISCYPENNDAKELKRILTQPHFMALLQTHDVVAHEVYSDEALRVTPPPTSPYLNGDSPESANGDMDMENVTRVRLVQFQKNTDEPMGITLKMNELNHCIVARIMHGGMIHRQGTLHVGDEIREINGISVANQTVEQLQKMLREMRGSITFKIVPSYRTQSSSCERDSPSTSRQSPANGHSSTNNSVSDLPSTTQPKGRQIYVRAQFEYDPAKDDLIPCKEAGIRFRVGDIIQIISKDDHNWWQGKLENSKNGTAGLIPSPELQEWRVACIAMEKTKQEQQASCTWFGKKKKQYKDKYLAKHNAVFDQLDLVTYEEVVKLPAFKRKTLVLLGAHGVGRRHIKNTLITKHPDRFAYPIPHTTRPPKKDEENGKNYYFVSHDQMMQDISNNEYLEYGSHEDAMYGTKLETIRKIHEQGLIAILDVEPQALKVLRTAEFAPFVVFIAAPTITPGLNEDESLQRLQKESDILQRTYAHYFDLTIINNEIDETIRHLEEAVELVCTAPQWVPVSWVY
Procedure: as §1

[8] = 1 h, 1 μM WEL028, 1 h preincubation

Chain of HIPK2 (Q9H2X6 whole entry): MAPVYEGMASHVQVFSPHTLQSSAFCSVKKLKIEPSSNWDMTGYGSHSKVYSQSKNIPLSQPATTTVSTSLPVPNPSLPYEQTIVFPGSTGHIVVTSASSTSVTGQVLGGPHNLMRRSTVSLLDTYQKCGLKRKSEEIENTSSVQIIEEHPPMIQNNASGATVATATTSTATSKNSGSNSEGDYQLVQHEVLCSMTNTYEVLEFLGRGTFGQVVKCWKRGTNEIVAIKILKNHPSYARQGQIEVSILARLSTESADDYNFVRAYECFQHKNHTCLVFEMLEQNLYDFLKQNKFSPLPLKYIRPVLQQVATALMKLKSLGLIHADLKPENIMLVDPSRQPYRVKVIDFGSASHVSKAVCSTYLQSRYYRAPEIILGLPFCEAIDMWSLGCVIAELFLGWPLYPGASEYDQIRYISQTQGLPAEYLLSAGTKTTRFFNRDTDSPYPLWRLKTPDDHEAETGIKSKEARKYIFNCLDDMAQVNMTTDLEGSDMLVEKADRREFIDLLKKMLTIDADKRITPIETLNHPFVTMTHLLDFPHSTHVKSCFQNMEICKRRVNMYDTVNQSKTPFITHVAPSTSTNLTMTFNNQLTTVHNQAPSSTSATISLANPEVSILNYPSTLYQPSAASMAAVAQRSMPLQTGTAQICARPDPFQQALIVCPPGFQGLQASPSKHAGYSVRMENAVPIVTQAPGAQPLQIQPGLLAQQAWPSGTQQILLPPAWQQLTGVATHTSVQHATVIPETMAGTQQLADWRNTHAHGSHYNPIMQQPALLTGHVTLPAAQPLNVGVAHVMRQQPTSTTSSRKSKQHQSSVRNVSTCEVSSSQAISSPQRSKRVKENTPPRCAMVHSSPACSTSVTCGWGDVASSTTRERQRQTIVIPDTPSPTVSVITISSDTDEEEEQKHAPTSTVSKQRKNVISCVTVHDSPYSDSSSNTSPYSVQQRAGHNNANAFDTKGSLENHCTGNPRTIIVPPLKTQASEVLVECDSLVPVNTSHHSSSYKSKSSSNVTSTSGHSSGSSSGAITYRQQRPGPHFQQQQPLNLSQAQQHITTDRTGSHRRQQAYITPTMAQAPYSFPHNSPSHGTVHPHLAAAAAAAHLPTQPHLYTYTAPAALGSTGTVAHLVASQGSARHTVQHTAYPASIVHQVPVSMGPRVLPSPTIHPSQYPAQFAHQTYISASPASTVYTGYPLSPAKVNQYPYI
Chain of AKT1 (PKB alpha) (P31749 whole entry): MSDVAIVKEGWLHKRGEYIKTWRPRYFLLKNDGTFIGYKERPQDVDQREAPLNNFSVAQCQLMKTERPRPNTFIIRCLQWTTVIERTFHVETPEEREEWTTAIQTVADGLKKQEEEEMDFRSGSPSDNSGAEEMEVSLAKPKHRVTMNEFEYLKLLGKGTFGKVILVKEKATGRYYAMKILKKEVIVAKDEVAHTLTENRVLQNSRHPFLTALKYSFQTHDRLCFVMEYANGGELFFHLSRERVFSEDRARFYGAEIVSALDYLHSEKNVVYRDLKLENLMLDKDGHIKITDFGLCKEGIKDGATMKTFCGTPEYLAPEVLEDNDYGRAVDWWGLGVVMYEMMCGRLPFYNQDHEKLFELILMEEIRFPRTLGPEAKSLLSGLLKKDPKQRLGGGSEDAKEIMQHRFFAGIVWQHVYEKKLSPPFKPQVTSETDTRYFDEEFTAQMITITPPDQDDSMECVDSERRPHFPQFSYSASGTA
Chain of STK22D (TSSK1) (Q9BXA7 whole entry): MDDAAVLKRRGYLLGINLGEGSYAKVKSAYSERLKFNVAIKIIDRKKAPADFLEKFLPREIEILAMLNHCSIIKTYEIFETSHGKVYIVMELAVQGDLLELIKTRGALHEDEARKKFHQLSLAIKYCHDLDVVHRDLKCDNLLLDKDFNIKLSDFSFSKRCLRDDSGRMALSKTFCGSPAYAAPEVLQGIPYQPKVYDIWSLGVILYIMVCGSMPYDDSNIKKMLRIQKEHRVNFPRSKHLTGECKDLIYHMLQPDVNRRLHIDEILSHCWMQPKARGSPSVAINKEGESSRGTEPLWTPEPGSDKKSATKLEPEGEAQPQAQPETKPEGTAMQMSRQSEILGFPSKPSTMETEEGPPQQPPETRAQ
Chain of EPHA7 (Q15375 28-998): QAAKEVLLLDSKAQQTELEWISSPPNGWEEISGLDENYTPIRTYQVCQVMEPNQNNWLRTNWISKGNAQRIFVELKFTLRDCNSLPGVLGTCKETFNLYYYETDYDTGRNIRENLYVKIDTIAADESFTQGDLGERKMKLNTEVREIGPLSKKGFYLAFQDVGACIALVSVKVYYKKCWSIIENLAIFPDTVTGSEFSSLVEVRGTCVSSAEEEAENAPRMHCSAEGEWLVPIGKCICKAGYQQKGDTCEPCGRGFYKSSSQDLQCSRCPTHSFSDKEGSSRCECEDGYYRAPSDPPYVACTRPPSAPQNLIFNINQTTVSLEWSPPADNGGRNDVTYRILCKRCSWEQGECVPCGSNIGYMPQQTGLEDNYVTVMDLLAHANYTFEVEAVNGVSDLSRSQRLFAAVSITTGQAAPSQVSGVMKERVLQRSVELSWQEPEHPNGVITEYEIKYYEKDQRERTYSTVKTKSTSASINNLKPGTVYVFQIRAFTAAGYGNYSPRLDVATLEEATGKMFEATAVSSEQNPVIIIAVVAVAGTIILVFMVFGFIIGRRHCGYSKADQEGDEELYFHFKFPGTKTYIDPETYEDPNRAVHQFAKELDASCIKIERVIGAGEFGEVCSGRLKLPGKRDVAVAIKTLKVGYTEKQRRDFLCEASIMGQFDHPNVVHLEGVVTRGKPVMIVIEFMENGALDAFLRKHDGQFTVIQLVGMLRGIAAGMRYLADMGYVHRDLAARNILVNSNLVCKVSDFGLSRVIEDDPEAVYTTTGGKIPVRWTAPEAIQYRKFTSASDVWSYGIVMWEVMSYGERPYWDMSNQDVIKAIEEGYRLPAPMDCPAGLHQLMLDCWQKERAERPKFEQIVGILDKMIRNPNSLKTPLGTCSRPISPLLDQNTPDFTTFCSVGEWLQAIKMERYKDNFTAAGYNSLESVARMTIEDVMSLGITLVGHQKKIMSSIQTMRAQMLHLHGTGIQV

## C#CCOc1ccc(Nc2ncc(Cl)c(Nc3ccccc3NC(=O)C=C)n2)c(OC)c1 [Compound 6]
[1]; [8]
  inhibition at 1 µM: 1%
[1]
  Inhibition at 1 µM (%): 2%
[1]; listed as WEL028, 1 µM
  Inhibition at 1 µM (%): 0%
[2]
  inhibition at 1 µM: 19%
[3]; 1 μM WEL028, 1 h preincubation
  Inhibition (%): 35%
[3]; NUAK1 (ARK5), 1 µM, Adapta, ATP Km app, listed as WEL028, 1 µM
  Inhibition at 1 µM (%): 41%
[3]; read-out: Inhibition at 1 µM (%), NUAK1 (ARK5), 1 µM, Adapta, ATP Km app
  inhibition at 1 µM: 30%
[4]; [8]
  inhibition at 1 µM: 1%
[4]
  Inhibition at 1 µM (%): 2%
[4]; listed as WEL028, 1 µM
  Inhibition at 1 µM (%): 0%
[5]
  inhibition at 1 µM: 4%
[6]; [8]
  inhibition at 1 µM: -3%
[6]
  Inhibition at 1 µM (%): -2%
[6]; listed as WEL028, 1 µM
  Inhibition at 1 µM (%): -4%
[7]; [8]
  inhibition at 1 µM: -7%
[7]
  Inhibition at 1 µM (%): -11%
[7]; listed as WEL028, 1 µM
  Inhibition at 1 µM (%): -4%
